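Interpolation was linear, between the two tested concentrations surrounding the appropriate level; five concentrations were tested over 48 hours in 96-well plates. Abbreviation: GI50, concentration required for 50% inhibition of growth. TGI denotes the concentration required for complete inhibition of growth.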
Columns and labels:
Test in all cases: NCI-60 cell line screen, 48 h
A498 renal = system: A498 renal
A549 NSCLC = system: A549 NSCLC
CAKI-1 renal = system: CAKI-1 renal
EKVX NSCLC = system: EKVX NSCLC
HT29 colon = system: HT29 colon
OVCAR-4 ovarian = system: OVCAR-4 ovarian
SF-268 CNS = system: SF-268 CNS
TK-10 renal = system: TK-10 renal
UACC-257 melanoma = system: UACC-257 melanoma
SNB-75 CNS = system: SNB-75 CNS

| SMILES | GI50 (A498 renal) | TGI (A498 renal) | GI50 (A549 NSCLC) | TGI (A549 NSCLC) | GI50 (CAKI-1 renal) | TGI (CAKI-1 renal) | GI50 (EKVX NSCLC) | TGI (EKVX NSCLC) | GI50 (HT29 colon) | TGI (HT29 colon) | GI50 (OVCAR-4 ovarian) | TGI (OVCAR-4 ovarian) | GI50 (SF-268 CNS) | TGI (SF-268 CNS) | GI50 (TK-10 renal) | TGI (TK-10 renal) | GI50 (UACC-257 melanoma) | TGI (UACC-257 melanoma) | TGI (SNB-75 CNS) | GI50 (SNB-75 CNS) |
| --- | --- | --- | --- | --- | --- | --- | --- | --- | --- | --- | --- | --- | --- | --- | --- | --- | --- | --- | --- | --- |
| Oc1cn(-c2ccc(Cl)cc2)nc1-c1n[nH]c(=S)n1-c1ccc(F)cc1 | 34.6 µM | 76.5 µM | 13.2 µM | 56 µM | 40.5 µM | > 100 µM | 27.5 µM | 91.1 µM | 43.2 µM | > 100 µM | 45.4 µM | > 100 µM | 14.7 µM | 70.8 µM | 28.1 µM | > 100 µM | 24.2 µM | 77.4 µM |  |  |
| CC(C)(C)OC(=O)N[C@H]1CC(=O)c2ccccc2N(CC(=O)O)C1=O |  |  |  | > 100 µM |  | > 100 µM |  | > 100 µM |  | > 100 µM |  | > 100 µM |  | > 100 µM |  | > 100 µM |  | > 100 µM | > 100 µM |  |
| CN(C)C1C(=O)C(C(N)=O)=C(O)C2(O)C(=O)C3=C(O)c4c(O)cccc4C(C)(O)C3CC12.[Cl][Sb]([Cl])[Cl] (stereo not given) | 2.96 µM | 11.4 µM | 3.47 µM | 13.8 µM | 1.83 µM | 4.22 µM | 2.96 µM | 8.01 µM | 3.79 µM | 12.2 µM | 4.45 µM | 19 µM |  |  | 3.85 µM | 14.3 µM | 3.12 µM | 11.8 µM |  |  |
| CC(C)(C)C1=NO[C@H]2[C@@H](NC(=O)c3ccccc3)CC[C@@H]12 |  |  |  | > 100 µM |  | > 100 µM |  |  |  | > 100 µM |  | > 100 µM |  | > 100 µM |  | > 100 µM |  | > 100 µM | > 100 µM |  |
| Cc1ccc2ccc3c4ccccc4ccc3c2c1 | 23.1 µM | 63.6 µM | 29.2 µM | > 100 µM | 20.9 µM | 63.7 µM |  |  | 22.9 µM | 77.7 µM | 17 µM | > 100 µM | 32.1 µM | > 100 µM | 28.5 µM | 67.8 µM | 27.1 µM | 83.4 µM | > 100 µM | 39.3 µM |
| Cc1ccc(-n2nc(C(OC3OC(CO)C(O)C(O)C3O)C(O)CO)c3nc4cc(C)c(C)cc4nc32)cc1 (stereo not given) |  | > 100 µM |  |  |  |  |  | > 100 µM |  | > 100 µM |  | > 100 µM |  | > 100 µM |  | > 100 µM |  | > 100 µM | > 100 µM |  |
| COCOC1CCCC[C@@]1(OCCOCCO[C@@]1(c2ccccc2)CCCC[C@H]1OCOC)c1ccccc1 (stereo not given in full) |  |  |  | > 100 µM |  | > 100 µM |  | > 100 µM |  | > 100 µM |  | > 100 µM |  | > 100 µM |  | > 100 µM |  | > 100 µM | 84.3 µM |  |
| N#Cc1ccccc1Sc1ccccc1N |  | > 100 µM |  | > 100 µM |  | > 100 µM |  | > 100 µM |  | > 100 µM |  | > 100 µM |  | > 100 µM |  | > 100 µM |  | > 100 µM |  |  |
| N#Cc1c(-c2ccccc2)c(-c2ccccc2)cc2c(=O)c3ccc(Cl)cc3[nH]c12 |  |  |  | > 100 µM |  |  |  | > 100 µM |  | > 100 µM |  |  |  | > 100 µM |  | > 100 µM |  | > 100 µM | > 100 µM |  |
| CCOC(=O)c1cn(C)c2c(OC)c3ccccc3c(OC)c2c1=O |  |  | 36.4 µM | > 100 µM | 29.7 µM | 76.8 µM |  |  | 64.3 µM | > 100 µM | 42.1 µM | > 100 µM | 20.1 µM | 74.9 µM | 30.1 µM | 62 µM | 16.6 µM | 40.6 µM | > 100 µM | > 100 µM |
| CCCCCCCCCCCCCCCC(=O)OCC1OC(n2cc(F)c(=O)[nH]c2=O)C(NC(=O)OCc2ccccc2)C(O)C1O (stereo not given) |  | 35.5 µM |  | 38.5 µM |  | 33.8 µM |  | 52.8 µM |  | 36.2 µM |  | 42 µM |  | 54 µM |  | 43 µM |  |  | 37.5 µM |  |
| C#COc1cccc(Nc2ncnc3cc(NC(=O)[C@@H](C)Cl)ccc23)c1 | 7.16 µM | 49.9 µM | 9.86 µM | > 62.5 µM | 10.2 µM | > 62.5 µM | 28.7 µM | > 62.5 µM | 2.41 µM | > 62.5 µM |  |  | 16.9 µM | > 62.5 µM | 36.5 µM | > 62.5 µM | > 62.5 µM | > 62.5 µM | 44.8 µM | 8.03 µM |
| COC(=O)c1ccc(NC(N)=NCCC(C)(C)c2ccc(C(F)(F)F)cc2)nc1 | 2.64 µM | 14.7 µM | 4.83 µM | 17.2 µM | 2.8 µM | 14.2 µM |  |  | 2.55 µM | 6.83 µM | 1.71 µM | 9.18 µM | 6.23 µM | 24.8 µM | 4.75 µM | 17.6 µM | 2.03 µM | 4.34 µM | 19.8 µM | 5.51 µM |
| COc1ccc(/C=C/C(=O)c2c(-c3ccccc3)nn(C)c(=O)c2N2CCCCC2)cc1 |  |  |  | > 100 µM |  | 92.4 µM |  | > 100 µM |  | 35.9 µM |  |  |  | 66.1 µM |  | > 100 µM |  |  |  |  |
| CC(=O)C1(C(=O)C(=[N+]=[N-])S(=O)(=O)c2ccccc2)CC1 |  |  |  | > 100 µM |  |  |  | > 100 µM |  | > 100 µM |  |  |  | > 100 µM |  | > 100 µM |  | > 100 µM | > 100 µM |  |
| O=C(O)c1ccccc1NCn1nc(-c2ccccc2O)oc1=S |  |  | 51 µM | > 100 µM | > 100 µM | > 100 µM | > 100 µM | > 100 µM | 34.9 µM | > 100 µM |  |  | 80.9 µM | > 100 µM | > 100 µM | > 100 µM | > 100 µM | > 100 µM |  |  |
| CC(C)c1ccc(Cc2ccc(C(C)C)c(NC(=O)C(=O)Cc3cnc4ccccc4n3)c2C(C)C)c(C(C)C)c1NC(=O)C(=O)Cc1cnc2ccccc2n1 |  | > 100 µM |  | > 100 µM |  | > 100 µM |  | > 100 µM |  |  |  | > 100 µM |  |  |  | > 100 µM |  | > 100 µM |  |  |
| COc1ccc(-c2cnc(-c3ccncc3-c3cccc(OC)c3)o2)cc1 |  |  | 0.0409 µM | 11.3 µM | 0.866 µM | 33 µM | 1.04 µM | 25.1 µM | 0.033 µM | 10.3 µM | 0.677 µM | 29.2 µM | 0.0783 µM | 16.9 µM | 11.7 µM | 42.1 µM | 0.403 µM | 15.8 µM | 23.2 µM | 0.0329 µM |

From PubChem BioAssay (NCI)
